Drawing on US8962608B2, “Cycloalkylnitrile pyrazole carboxamides as janus kinase inhibitors” (Merck Sharp & Dohme Corp., priority 2011, dated 2015), this text covers IC50 for 25 molecules.
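Further: biochemical assay with HTRF read-out.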

Sequence of JAK1 (recombinant purified GST-tagged catalytic domain) (P23458 875-1153): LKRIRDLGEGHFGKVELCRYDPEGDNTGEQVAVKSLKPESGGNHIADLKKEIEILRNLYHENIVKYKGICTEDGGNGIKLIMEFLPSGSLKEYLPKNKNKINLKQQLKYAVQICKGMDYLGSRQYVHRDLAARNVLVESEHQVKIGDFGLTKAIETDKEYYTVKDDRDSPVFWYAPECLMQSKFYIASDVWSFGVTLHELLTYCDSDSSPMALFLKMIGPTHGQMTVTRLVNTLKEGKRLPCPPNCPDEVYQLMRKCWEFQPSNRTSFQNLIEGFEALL

This assay addresses JAK1 (recombinant purified GST-tagged catalytic domain) (Homo sapiens (Human), UniProt P23458). Description: biochemical.
The term IC50 denotes the point on the concentration scale where inhibition reaches its midpoint. As to `N#C[C@H]1CCCC[C@@H]1n1cc(C(N)=O)c(Nc2ccc(OC(F)F)cc2)n1` (single isomer, unassigned) [Example 17-103, 1-[(1S,2S or 1R,2R)-2-cyanocyclohexyl]-3-{[4-(difluoromethoxy)phenyl]amino}-1H-pyrazole-4-carboxamide], the 50% inhibitory concentration (IC50) was determined as 0.7 nM.

For the molecule `N#C[C@H]1CCCC[C@@H]1n1cc(C(N)=O)c(Nc2ccc(C(F)(F)F)cc2)n1` (single isomer, unassigned) [Example 17-105, 1-[(1S,2S or 1R,2R)-2-cyanocyclohexyl]-3-{[4-(trifluoromethyl)phenyl]amino}-1H-pyrazole-4-carboxamide], the IC50 came out at 2 nM.

`N#C[C@H]1C[C@H](O)CC[C@@H]1n1cc(C(N)=O)c(Nc2ccc(Cl)c(F)c2)n1` (single isomer, unassigned) [Example 25-3, 3-[(4-chloro-3-fluorophenyl)amino]-1-[(1S,2S,4R or 1R,2R,4S)-2-cyano-4-hydroxycyclohexyl]-1H-pyrazole-4-carboxamide]: the 50% inhibitory concentration (IC50) was determined as 1 nM.

`CC(C)(CF)c1ccc(Nc2nn([C@H]3CC[C@@H](O)C[C@@H]3C#N)cc2C(N)=O)cc1` (single isomer, unassigned) [Example 25-9, 1-[(1S,2S,4R or 1R,2R,4S)-2-cyano-4-hydroxycyclohexyl]-3-{[4-(2-fluoro-1,1-dimethylethyl)phenyl]amino}-1H-pyrazole-4-carboxamide]: the IC50 was 1 nM.

In the case of `COC(C)(C)c1ccc(Nc2nn([C@H]3CC[C@@H](O)C[C@@H]3C#N)cc2C(N)=O)cc1` (single isomer, unassigned) [Example 25-11, 1-[(1S,2S,4R or 1R,2R,4S)-2-cyano-4-hydroxycyclohexyl]-3-{[4-(1-methoxy-1-methylethyl)phenyl]amino}-1H-pyrazole-4-carboxamide], the IC50 turned out to be 0.45 nM.

For the molecule `N#C[C@H]1C[C@H](O)CCC1n1cc(C(N)=O)c(Nc2ccnc(F)c2)n1` (single isomer, unassigned) [Example 25-21, 1-[(1S,2S,4R or 1R,2R,4S)-2-cyano-4-hydroxycyclohexyl]-3-[(2-fluoropyridin-4-yl)amino]-1H-pyrazole-4-carboxamide], the IC50 is 1 nM.

As for `N#C[C@H]1C[C@H](O)CCC1n1cc(C(N)=O)c(Nc2ccnc(F)c2)n1` (single isomer, unassigned) [Example 25-25, 1-[(1S,2S,4R or 1R,2R,4S)-2-cyano-4-hydroxycyclohexyl]-3-[2-fluoropyridin-4-yl)amino]-1H-pyrazole-4-carboxamide], the IC50 was found to be 15 nM.

For `CN([C@H]1CC[C@H](n2cc(C(N)=O)c(Nc3ccc(Cl)cc3)n2)[C@@H](C#N)C1)C(C)(C)C` (single isomer, unassigned) [Example 28-6, 1-((1S,2S,4S or 1R,2R,4R)-4-(tert-butyl(methyl)amino)-2-cyanocyclohexyl)-3-((4-chlorophenyl)amino)-1H-pyrazole-4-carboxamide], the concentration for half-maximal inhibition (IC50) turned out to be 0.55 nM.

Consider `C[C@@H]1C[C@@H](C)N1[C@H]1CC[C@H](n2cc(C(N)=O)c(Nc3ccc(C(F)(F)F)cc3)n2)[C@@H](C#N)C1` (single isomer, unassigned) [Example 28-9, 1-{(1S,2S,4S or 1R,2R,4R)-2-cyano-4-[(2R,4R or 2S,4S)-2,4-dimethylazetidin-1-yl]cyclohexyl}-3-{[4-(trifluoromethyl)phenyl]amino}-1H-pyrazole-4-carboxamide], for which the half-inhibitory concentration (IC50) was 2 nM.

In the case of `C[C@H](N[C@@H]1CC[C@H](n2cc(C(N)=O)c(Nc3ccc(OC(F)F)nc3)n2)[C@@H](C#N)C1)C1CC1` (single isomer, unassigned) [Example 28-13, 1-[(1S,2S,4R or 1R,2R,4S)-2-cyano-4-{[(1S)-1-cyclopropylethyl]amino}cyclo-hexyl]-3-{[6-(difluoromethoxy)pyridin-3-yl]amino}-1H-pyrazole-4-carboxamide], the IC50 was 11 nM.

For `N#C[C@H]1C[C@@H](N2CC3(CCC3)C2)CC[C@@H]1n1cc(C(N)=O)c(Nc2ccc(C(F)(F)F)cc2)n1` (single isomer, unassigned) [Example 28-17, 1-[(1S,2S,4S or 1R,2R,4R)-4-(2-azaspiro[3.3]hept-2-yl)-2-cyanocyclohexyl]-3-{[4-(trifluoromethyl)phenyl]amino}-1H-pyrazole-4-carboxamide], the half-inhibitory concentration (IC50) came to 2 nM.

Turning to `C[C@H]1C[C@H](C)N1[C@@H]1CC[C@H](n2cc(C(N)=O)c(Nc3ccc(C(F)(F)F)cc3)n2)[C@@H](C#N)C1` (single isomer, unassigned) [Example 28-20, 1-{(1S,2S,4R or 1R,2R,4S)-2-cyano-4-[(2S,4S or 2R,4R)-2,4-dimethylazetidin-1-yl]cyclohexyl}-3-{[4-(trifluoromethyl)phenyl]amino}-1H-pyrazole-4-carboxamide], the concentration for half-maximal inhibition (IC50) came to 5 nM.

Consider `C[C@H]1C[C@H](C)N1[C@H]1CC[C@H](n2cc(C(N)=O)c(Nc3ccc(C(F)(F)F)cc3)n2)[C@@H](C#N)C1` (single isomer, unassigned) [Example 28-21, 1-{(1S,2S,4S or 1R,2R,4R)-2-cyano-4-[(2S,4S or 2R,4R)-2,4-dimethylazetidin-1-yl]cyclohexyl}-3-{[4-(trifluoromethyl)phenyl]amino}-1H-pyrazole-4-carboxamide], for which the 50% inhibitory concentration (IC50) came to 3 nM.

Take `N#C[C@H]1C[C@H](N2CC3(CCC3)C2)CC[C@@H]1n1cc(C(N)=O)c(Nc2ccc(C(F)(F)F)cc2)n1` (single isomer, unassigned) [Example 28-24, 1-[(1S,2S,4R or 1R,2R,4S)-4-(2-azaspiro[3.3]hept-2-yl)-2-cyanocyclohexyl]-3-{[4-(trifluoromethyl)phenyl]amino}-1H-pyrazole-4-carboxamide]: the half-inhibitory concentration (IC50) turned out to be 0.6 nM.

For `C[C@@H]1C[C@@H](C)N1[C@@H]1CC[C@H](n2cc(C(N)=O)c(Nc3ccc(C(F)(F)F)cc3)n2)[C@@H](C#N)C1` (single isomer, unassigned) [Example 28-30, 1-{(1S,2S,4R or 1R,2R,4S)-2-cyano-4-[(2R,4R or 2S,4S)-2,4-dimethylazetidin-1-yl]cyclohexyl}-3-{[4-(trifluoromethyl)phenyl]amino}-1H-pyrazole-4-carboxamide], the half-inhibitory concentration (IC50) was 15 nM.

Turning to `C[C@H](N[C@H]1CC[C@H](n2cc(C(N)=O)c(Nc3ccc(OC(F)F)nc3)n2)[C@@H](C#N)C1)C1CC1` (single isomer, unassigned) [Example 28-32, 1-[(1S,2S,4S or 1R,2R,4R)-2-cyano-4-{[(1S)-1-cyclopropylethyl]amino}cyclo-hexyl]-3-{[6-(difluoromethoxy)pyridin-3-yl]amino}-1H-pyrazole-4-carboxamide], the half-maximal inhibitory concentration (IC50) came out at 5 nM.

As to `N#C[C@H]1C[C@H](N2CCC2)CC[C@@H]1n1cc(C(N)=O)c(Nc2ccc(CC(F)(F)F)cc2)n1` (single isomer, unassigned) [Example 28-53, 1-[(1S,2S,4R or 1R,2R,4S)-4-azetidin-1-yl-2-cyanocyclohexyl]-3-{[4-(2,2,2-trifluoroethyl)phenyl]amino}-1H-pyrazole-4-carboxamide], the IC50 was found to be 0.4 nM.

Turning to `N#C[C@H]1C[C@@H](N2CCC2)CC[C@@H]1n1cc(C(N)=O)c(Nc2ccc(CC(F)(F)F)cc2)n1` (single isomer, unassigned) [Example 28-69, 1-[(1S,2S,4S or 1R,2R,4R)-4-azetidin-1-yl-2-cyanocyclohexyl]-3-{[4-(2,2,2-trifluoroethyl)phenyl]amino}-1H-pyrazole-4-carboxamide], the IC50 was found to be 0.6 nM.

As for `CC(C)(C(=O)O)c1ccc(Nc2nn([C@H]3CCC(N4CCC4)C[C@@H]3C#N)cc2C(N)=O)cc1` (single isomer, unassigned) [Example 28-72, 2-[4-({1-[(1S,2S or 1R,2R)-4-azetidin-1-yl-2-cyanocyclohexyl]-4-carbamoyl-1H-pyrazol-3-yl}amino)phenyl]-2-methylpropanoic acid], the half-maximal inhibitory concentration (IC50) was determined as 0.45 nM.

For `CC(C)(C(=O)O)c1ccc(Nc2nn([C@H]3CC[C@@H](N4CCC4)C[C@@H]3C#N)cc2C(N)=O)cc1` (single isomer, unassigned) [Example 28-80, 2-[4-({1-[(1S,2S,4R or 1R,2R,4S)-4-azetidin-1-yl-2-cyanocyclohexyl]-4-carbamoyl-1H-pyrazol-3-yl}amino)phenyl]-2-methylpropanoic acid], the concentration for half-maximal inhibition (IC50) came to 0.3 nM.

Turning to `CN(C)[C@H]1CC[C@H](n2cc(C(N)=O)c(Nc3ccc(F)cc3)n2)[C@@H](C#N)C1` (single isomer, unassigned) [Example 28-94, 1-[(1S,2S,4S or 1R,2R,4S)-2-cyano-4-(dimethylamino)cyclohexyl]-3-[(4-fluorophenyl)amino]-1H-pyrazole-4-carboxamide], the half-maximal inhibitory concentration (IC50) worked out at 2 nM.

As for `CN(C)[C@@H]1CC[C@H](n2cc(C(N)=O)c(Nc3ccc(OC(F)F)cc3)n2)[C@@H](C#N)C1` (single isomer, unassigned) [Example 28-95, 1-[(1S,2S,4R or 1R,2R,4S)-2-cyano-4-(dimethylamino)cyclohexyl]-3-{[4-(difluoromethoxy)phenyl]amino}-1H-pyrazole-4-carboxamide], the IC50 turned out to be 1 nM.

As to `COC1CN([C@H]2CC[C@H](n3cc(C(N)=O)c(Nc4ccc(C(F)(F)F)cc4)n3)[C@@H](C#N)C2)C1` (single isomer, unassigned) [Example 28-99, 1-[(1S,2S,4S or 1R,2R,4R)-2-cyano-4-(3-methoxyazetidin-1-yl)cyclohexyl]-3-{[4-(trifluoromethyl)phenyl]amino}-1H-pyrazole-4-carboxamide], the IC50 came to 3 nM.

Turning to `CN(C)[C@H]1CC[C@H](n2cc(C(N)=O)c(Nc3ccc(F)cc3)n2)[C@@H](C#N)C1` (single isomer, unassigned) [Example 28-102, 1-[(1S,2S,4S or 1R,2R,4R)-2-cyano-4-(dimethylamino)cyclohexyl]-3-[(4-fluorophenyl)amino]-1H-pyrazole-4-carboxamide], the IC50 was 1 nM.

Turning to `N#C[C@H]1C[C@@H](N2CCC2)CC[C@@H]1n1cc(C(N)=O)c(Nc2ccc(OC(F)F)cc2)n1` (single isomer, unassigned) [Example 28-103, 1-[(1S,2S,4S or 1R,2R,4R)-4-azetidin-1-yl-2-cyanocyclohexyl]-3-{[4-(difluoromethoxy)phenyl]amino}-1H-pyrazole-4-carboxamide], the IC50 came out at 6 nM.
